pEC50: −log10 of the molar value. Calls of active or inactive are those of the source. The calls are words filed in the database; no cut-off is given here. Positions of bridges follow the written chain, without caps; N, C: chain ends. Residues, ends and D or L forms follow the SMILES beside them.
Assays:
Urotensin-2 receptor = biological target: T1, Urotensin-2 receptor (Homo sapiens, UniProt Q9UKP6); experiment: Mobilization of intracellular calcium in CHO cells transiently transfected with human Urotensin 2 receptor; assay type: functional, cell-based
T1 sequence (Q9UKP6 whole entry): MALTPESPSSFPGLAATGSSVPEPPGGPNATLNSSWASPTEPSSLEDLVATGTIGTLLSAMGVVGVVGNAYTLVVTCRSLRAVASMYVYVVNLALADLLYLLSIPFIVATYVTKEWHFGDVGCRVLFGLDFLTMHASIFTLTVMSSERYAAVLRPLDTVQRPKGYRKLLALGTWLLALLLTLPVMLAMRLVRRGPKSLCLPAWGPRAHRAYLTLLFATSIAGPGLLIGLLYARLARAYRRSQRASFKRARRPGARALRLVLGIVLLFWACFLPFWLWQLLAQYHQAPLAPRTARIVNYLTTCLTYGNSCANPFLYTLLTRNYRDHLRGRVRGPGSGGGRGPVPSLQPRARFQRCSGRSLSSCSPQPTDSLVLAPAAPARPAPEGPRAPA

[1] = biological target: T2, Urotensin-2 receptor (Homo sapiens) (UniProt Q9UKP6); details: CHO
T2 sequence (whole entry): T1 sequence (Q9UKP6 whole entry)

pEC50 (Urotensin-2 receptor)	pEC50 (Urotensin-2 receptor; cho)	SMILES	other results
6.63	–	CC(C)[C@H](NC(=O)[C@H](CS)NC(=O)[C@H](Cc1ccc(O)cc1)NC(=O)[C@H](CCCCN)NC(=O)[C@H](Cc1c[nH]c2ccccc12)NC(=O)[C@H](Cc1ccccc1)NC(=O)[C@H](C)NC(=O)[C@H](CC(=O)O)NC(=O)[C@@H]1CCCN1C(=O)[C@@H](NC(=O)[C@@H](N)CCC(=O)O)[C@@H](C)O)C(=O)O	–
8.57	–	CC(C)[C@H](NC(=O)[C@H](CS)NC(=O)[C@H](Cc1ccc(O)cc1)NC(=O)[C@H](CCCCN)NC(=O)[C@H](Cc1c[nH]c2ccccc12)NC(=O)[C@H](Cc1ccccc1)NC(=O)[C@H](CS)NC(=O)[C@H](C)NC(=O)[C@@H]1CCCN1C(=O)[C@@H](NC(=O)[C@@H](N)CCC(=O)O)[C@@H](C)O)C(=O)O	–
8.74	–	CC(C)[C@H](NC(=O)[C@H](CS)NC(=O)[C@H](Cc1ccc(O)cc1)NC(=O)[C@H](CCCCN)NC(=O)[C@H](Cc1c[nH]c2ccccc12)NC(=O)[C@H](Cc1ccccc1)NC(=O)[C@H](CS)NC(=O)[C@H](CC(=O)O)NC(=O)[C@@H]1CCCN1C(=O)[C@@H](NC(=O)[C@H](C)N)[C@@H](C)O)C(=O)O	–
8.48	–	CC(C)[C@H](NC(=O)[C@H](CS)NC(=O)[C@H](Cc1ccc(O)cc1)NC(=O)[C@H](CCCCN)NC(=O)[C@H](Cc1c[nH]c2ccccc12)NC(=O)[C@H](Cc1ccccc1)NC(=O)[C@H](CS)NC(=O)[C@H](CC(=O)O)NC(=O)[C@@H]1CCCN1C(=O)[C@H](C)NC(=O)[C@@H](N)CCC(=O)O)C(=O)O	–
–	–	CC(C)[C@H](NC(=O)[C@H](CS)NC(=O)[C@@H](Cc1ccc(O)cc1)NC(=O)[C@H](CCCCN)NC(=O)[C@H](Cc1c[nH]c2ccccc12)NC(=O)[C@H](Cc1ccccc1)NC(=O)[C@H](CS)NC(=O)[C@H](CC(=O)O)NC(=O)[C@H]1CCCN1C(=O)[C@@H](NC(=O)[C@@H](N)CCC(=O)O)[C@@H](C)O)C(=O)O	NA [1]: inactive
–	–	CC(C)[C@H](NC(=O)[C@H](CS)NC(=O)[C@H](CCCCN)NC(=O)[C@H](Cc1c[nH]c2ccccc12)NC(=O)[C@H](Cc1ccccc1)NC(=O)[C@H](CS)NC(=O)[C@H](CC(=O)O)NC(=O)[C@H]1CCCN1C(=O)[C@@H](NC(=O)[C@@H](N)CCC(=O)O)[C@@H](C)O)C(=O)O	NA [1]: inactive
–	–	CC(C)[C@H](NC(=O)[C@H](CS)NC(=O)[C@H](Cc1ccc(O)cc1)NC(=O)[C@H](Cc1c[nH]c2ccccc12)NC(=O)[C@H](Cc1ccccc1)NC(=O)[C@H](CS)NC(=O)[C@H](CC(=O)O)NC(=O)[C@H]1CCCN1C(=O)[C@@H](NC(=O)[C@@H](N)CCC(=O)O)[C@@H](C)O)C(=O)O	NA [1]: inactive
8.64	–	NCCCC[C@H](NC(=O)[C@H](Cc1c[nH]c2ccccc12)NC(=O)[C@H](Cc1ccccc1)NC(=O)[C@@H](N)CS)C(=O)N[C@@H](Cc1ccc(O)cc1)C(=O)N[C@@H](CS)C(N)=O (H-CFWKYC-NH2)	–
8.74	–	CC(C)[C@H](NC(=O)[C@H](CS)NC(=O)[C@H](Cc1ccc(O)cc1)NC(=O)[C@H](CCCCN)NC(=O)[C@H](Cc1c[nH]c2ccccc12)NC(=O)[C@H](Cc1ccccc1)NC(=O)[C@@H](N)CS)C(=O)O (H-CFWKYCV-OH)	–
8.52	–	CC(C)[C@H](NC(=O)[C@H](CS)NC(=O)[C@H](Cc1ccc(O)cc1)NC(=O)[C@H](CCCCN)NC(=O)[C@H](Cc1c[nH]c2ccccc12)NC(=O)[C@H](Cc1ccccc1)NC(=O)[C@H](CS)NC(=O)[C@@H](N)CC(=O)O)C(=O)O (H-DCFWKYCV-OH)	–
8.72	–	CC(C)[C@H](NC(=O)[C@H](CS)NC(=O)[C@H](Cc1ccc(O)cc1)NC(=O)[C@H](CCCCN)NC(=O)[C@H](Cc1c[nH]c2ccccc12)NC(=O)[C@H](Cc1ccccc1)NC(=O)[C@H](CS)NC(=O)[C@H](CC(=O)O)NC(=O)[C@H](C)NC(=O)[C@@H](NC(=O)[C@@H](N)CCC(=O)O)[C@@H](C)O)C(=O)O (H-ETADCFWKYCV-OH)	–
–	8.24	CC(C)[C@H](NC(=O)[C@@H]1CSSC[C@H](NC(=O)[C@H](CC(=O)O)NC(=O)[C@@H]2CCCN2C(=O)[C@@H](NC(=O)[C@@H](N)CCC(=O)O)[C@@H](C)O)C(=O)N[C@@H](C)C(=O)N[C@@H](Cc2c[nH]c3ccccc23)C(=O)N[C@@H](CCCCN)C(=O)N[C@@H](Cc2ccc(O)cc2)C(=O)N1)C(=O)O (H-ETPDCAWKYCV-OH; disulfide 5-10)	–
–	5.89	CC(C)[C@H](NC(=O)[C@@H]1CSSC[C@H](NC(=O)[C@H](CC(=O)O)NC(=O)[C@@H]2CCCN2C(=O)[C@@H](NC(=O)[C@@H](N)CCC(=O)O)[C@@H](C)O)C(=O)N[C@@H](Cc2ccccc2)C(=O)N[C@@H](C)C(=O)N[C@@H](CCCCN)C(=O)N[C@@H](Cc2ccc(O)cc2)C(=O)N1)C(=O)O (H-ETPDCFAKYCV-OH; disulfide 5-10)	–
–	< 5.00	CC(C)[C@H](NC(=O)[C@@H]1CSSC[C@H](NC(=O)[C@H](CC(=O)O)NC(=O)[C@@H]2CCCN2C(=O)[C@@H](NC(=O)[C@@H](N)CCC(=O)O)[C@@H](C)O)C(=O)N[C@@H](Cc2ccccc2)C(=O)N[C@@H](CCCCN)C(=O)N[C@@H](Cc2ccc(O)cc2)C(=O)N1)C(=O)O (H-ETPDCFKYCV-OH; disulfide 5-9)	–
–	4.83	CC(C)[C@H](NC(=O)[C@@H]1CSSC[C@H](NC(=O)[C@H](CC(=O)O)NC(=O)[C@@H]2CCCN2C(=O)[C@@H](NC(=O)[C@@H](N)CCC(=O)O)[C@@H](C)O)C(=O)N[C@@H](Cc2ccccc2)C(=O)N[C@@H](Cc2c[nH]c3ccccc23)C(=O)N[C@@H](C)C(=O)N[C@@H](Cc2ccc(O)cc2)C(=O)N1)C(=O)O (H-ETPDCFWAYCV-OH; disulfide 5-10)	–
–	6.71	CC(C)[C@H](NC(=O)[C@@H]1CSSC[C@H](NC(=O)[C@H](CC(=O)O)NC(=O)[C@@H]2CCCN2C(=O)[C@@H](NC(=O)[C@@H](N)CCC(=O)O)[C@@H](C)O)C(=O)N[C@@H](Cc2ccccc2)C(=O)N[C@@H](Cc2c[nH]c3ccccc23)C(=O)N[C@@H](CCCCN)C(=O)N[C@@H](C)C(=O)N1)C(=O)O (H-ETPDCFWKACV-OH; disulfide 5-10)	–
–	8.74	C[C@@H](O)[C@H](NC(=O)[C@@H](N)CCC(=O)O)C(=O)N1CCC[C@H]1C(=O)N[C@@H](CC(=O)O)C(=O)N[C@H]1CSSC[C@@H](C(=O)O)NC(=O)[C@H](Cc2ccc(O)cc2)NC(=O)[C@H](CCCCN)NC(=O)[C@H](Cc2c[nH]c3ccccc23)NC(=O)[C@H](Cc2ccccc2)NC1=O (H-ETPDCFWKYC-OH; disulfide 5-10)	–
–	8.49	C[C@H](NC(=O)[C@@H]1CSSC[C@H](NC(=O)[C@H](CC(=O)O)NC(=O)[C@@H]2CCCN2C(=O)[C@@H](NC(=O)[C@@H](N)CCC(=O)O)[C@@H](C)O)C(=O)N[C@@H](Cc2ccccc2)C(=O)N[C@@H](Cc2c[nH]c3ccccc23)C(=O)N[C@@H](CCCCN)C(=O)N[C@@H](Cc2ccc(O)cc2)C(=O)N1)C(=O)O (H-ETPDCFWKYCA-OH; disulfide 5-10)	–
–	7.28	CC(C)[C@H](NC(=O)[C@@H]1CSSC[C@H](NC(=O)[C@H](CC(=O)O)NC(=O)[C@@H]2CCCN2C(=O)[C@@H](NC(=O)[C@@H](N)CCC(=O)O)[C@@H](C)O)C(=O)N[C@@H](Cc2c[nH]c3ccccc23)C(=O)N[C@@H](CCCCN)C(=O)N[C@@H](Cc2ccc(O)cc2)C(=O)N1)C(=O)O (H-ETPDCWKYCV-OH; disulfide 5-9)	–
–	8.44	CC(C)[C@H](NC(=O)[C@@H]1CSSC[C@H](NC(=O)[C@H](CC(=O)O)NC(=O)[C@@H]2CCCN2)C(=O)N[C@@H](Cc2ccccc2)C(=O)N[C@@H](Cc2c[nH]c3ccccc23)C(=O)N[C@@H](CCCCN)C(=O)N[C@@H](Cc2ccc(O)cc2)C(=O)N1)C(=O)O (H-PDCFWKYCV-OH; disulfide 3-8)	–
–	8.62	CC(C)[C@H](NC(=O)[C@@H]1CSSC[C@H](NC(=O)[C@H](CC(=O)O)NC(=O)[C@@H]2CCCN2C(=O)[C@@H](N)[C@@H](C)O)C(=O)N[C@@H](Cc2ccccc2)C(=O)N[C@@H](Cc2c[nH]c3ccccc23)C(=O)N[C@@H](CCCCN)C(=O)N[C@@H](Cc2ccc(O)cc2)C(=O)N1)C(=O)O (H-TPDCFWKYCV-OH; disulfide 4-9)	–

— ChEMBL document CHEMBL1135930, “Identification of nonpeptidic urotensin II receptor antagonists by virtual screening based on a pharmacophore model derived from structure-activity relationships and nuclear magnetic resonance studies on urotensin II” (J Med Chem, 2002)
